Reference: article PMC7587979 (Molecules, 2020)
Values joined by “and” are separate entries in the source; they are usually repeats but may differ in a detail not shown here. Identical values can stand only once. Like-named read-outs stand apart in the source and are kept apart here.

Legend:
[1] = tested on: CQ-resistant P. falciparum FcB1/Colombia strain; assay: In vitro growth inhibition of P. falciparum ([3H]-hypoxanthine incorporation); type: cell-based, Plasmodium falciparum; details: for fold more active in comparison to the diester compound 17: ratio of IC50 against P. falciparum FcB1 versus 17; for times more active than FSM: ratio of IC50 against P. falciparum FcB1 versus FSM
Procedure: Specifically, IC50 (μM) values for the antiplasmodial activities were determined from four independent experiments as the mean values ± standard deviations. IC50 (μM) values for the cytotoxicity activities were determined from two independent experiments as the mean values ± standard deviations. IC50, SIs (ratio between IC50 (μM) of cytotoxicity/IC50 (μM) of the antiplasmodial activity), and XLogGP3 values for the FSM derivatives, hybrid, and conjugates are reported in Table 1.
The chloroquine-resistant FcB1/Colombia strain of Plasmodium falciparum was maintained in vitro on human erythrocytes in RPMI 1640 medium supplemented by 8% (v/v) heat-inactivated human serum, at 37 °C, under an atmosphere of 3% CO2, 6% O2, and 91% N2 [45]. In vitro drug susceptibility assays were measured by [^3H]-hypoxanthine incorporation. Drug stock solutions were prepared in DMSO. Compounds were serially diluted two-fold with 100 μL of culture medium in 96-well plates. Asynchronous parasite cultures (100 μL, 1% parasitaemia and 1% final hematocrite) were then added to each well and incubated for 24 h at 37 °C prior to the addition of 0.5μCi of [^3H]-hypoxanthine (GE Healthcare, France, 1 to 5Ci·mmol/mL) per well [42]. After a further incubation of 24 h, plates were frozen and thawed. Cell lysates were then collected onto fiberglass filters and counted in a liquid scintillation spectrometer. The growth inhibition for each drug concentration was determined by comparison of the radioactivity incorporated in the treated culture with that in the control culture maintained on the same plate. The IC50 value was obtained from the drug concentration–response curve and the results were expressed as the mean values ± standard deviations determined from several independent experiments. Chloroquine and artemisinin were used as antimalarial drug controls.

[2] = tested on: human primary fibroblasts (cell line AB943); assay: Cytotoxicity evaluation (resazurin) and selectivity index; type: cell-based; details: for SI: SI = IC50 (AB943)/IC50 (P.f. FcB1); for cytotoxicity in words: judged from SI, AB943 fibroblasts
Procedure: Moreover, their cytotoxicity was measured, as previously reported, upon the primary human fibroblast cell line AB943, which allowed the calculation of their selectivity index (SI).
Specifically, IC50 (μM) values for the antiplasmodial activities were determined from four independent experiments as the mean values ± standard deviations. IC50 (μM) values for the cytotoxicity activities were determined from two independent experiments as the mean values ± standard deviations.
Cytotoxicity evaluation was performed upon human primary fibroblasts (cell line AB943). Assays were realized in 96-well plates in DMEM + Glutamax without phenol red medium (Gibco) containing 25 mM HEPES, pH 7.3, 10% fetal calf serum under a 5% CO2 atmosphere, at 37 °C. After trypsin treatment, AB943 cells were seeded at 2000 cells per well in 100 µL. After 24 h of incubation, drugs diluted in culture medium were added (100 µL per well). Drug stock solutions were prepared in dimethyl sulfoxide (DMSO). The final DMSO concentration in the cultures remained below 1%. Control cultures were constituted of cultures treated with DMSO instead of drug. The cytotoxicity assay was based on the conversion of a redo-sensitive dye (resazurin) to a fluorescent product by viable cells. […] The percentage of inhibition of cell growth was calculated by comparing the fluorescence of cells maintained in the presence of drug to that in the absence of drug.

[3] = set-up: method as in PMID 10477522, PMID 17887769; details: in vitro and in a mouse model; cited from earlier work
[4] = CQ-resistant P. falciparum FcB1/Colombia strain, mean ± SD of four independent experiments, read-out: IC50

Compound | IC50 ([1]; Plasmodium falciparum, FCB1) [nM] | SI [2] | also measured
CC(=O)N(O)CCCP(=O)(O)O [FR900098, reference compound] | 7000 | >14.2 | activity relative to FSM [3]: about twice as active as FSM
CCOP(=O)(CCCN(O)C(=O)CCC(=O)Nc1ccccc1N)OCC [Compound 27, Diethyl(3-(4-((2-aminophenyl)amino)-N-hydroxy-4-oxobutanamido)propyl) phosphonate] | 81000 ± 2800 | – | –
CCOP(=O)(CCCN(O)C(=O)CC[C@H]1O[C@@H]2O[C@]3(C)CC[C@H]4[C@H](C)CC[C@@H]([C@H]1C)C24OO3)OCC [Compound 21, Diethyl (3-(N-hydroxy-3-((3S,5aS,6R,8aS,9R,10R,12R)-3,6,9-trimethyldecahydro-12H-3, 12-epoxy[1,2]dioxepino[4,3-i]isochromen-10-yl)propanamido)propyl)phosphonate] | 28000 ± 11600 | – | –
CCOP(=O)(CCCN(O)C(=O)CCC(=O)Nc1ccc(Cc2ccc(NC(=O)OC(C)(C)C)cc2)cc1)OCC [Compound 29, Tert-butyl(4-(4-(4-((3-(diethoxyphosphoryl)propyl)(hydroxy)amino)-4-oxobutanamido)benzyl)phenyl) carbamate] | 22700 ± 1900 | 1.7 | cytotoxicity in words [2]: cytotoxic
Nc1ccccc1NCCCP(=O)(O)O [Compound 35, (3-((2-Aminophenyl)amino)propyl)phosphonic acid] | > 100000 | – | –
CCOP(=O)(CCCN(O)C(=O)CCC(=O)NCc1ccccc1)OCC [Compound 30, Diethyl (3-(4-(benzylamino)-N-hydroxy-4-oxobutanamido)propyl) phosphonate] | > 100000 | – | –
CCOP(=O)(CCCN(O)C(=O)CCC(=O)NCCNc1ccnc2cc(Cl)ccc12)OCC.O=C(O)C(F)(F)F [Compound 20, 7-Chloro-N-(2-(4-((3-(diethoxyphosphoryl)propyl)(hydroxy)amino)-4oxobutanamido)ethyl)quinolin-4-aminium 2,2,2-trifluoroacetate] | 4200 ± 900 | 23.7 | fold more active in comparison to the diester compound 17 [1]: 25–40; times more active than FSM [1]: 3.5–5.5
CCOP(=O)(CCCN(O)C(=O)CCC(=O)NC(c1ccccc1)c1ccccc1)OCC [Compound 31, Diethyl(3-(4-(benzhydrylamino)-N-hydroxy-4-oxobutanamido)propyl)phosphonate] | 44200 ± 9500 | – | –
Diethyl(3-(N-hydroxy-4-oxo-4-((4-(3-((3S,5aS,6R,8aS,9R,10R,12R)-3,6,9-trimethyldecahydro-12H-3,12-epoxy[1,2]dioxepino[4,3-i]isochromen-10-yl)propanamido)butyl)(3-(3-((3S,5aS,6R,8aS,9R,10R,12R)-3,6,9-trimethyldecahydro-12H-3,12-epoxy[1,2]dioxepino[4,3-i]isochromen-10-yl)propanamido)propyl)amino) butanamido)propyl)phosphonate [Compound 22] | – | 94 and 94.1 | IC50 [1, 4]: 360 ± 90 nM; times more active than FSM [1]: 23–41
CCOP(=O)(CCCN(O)C(=O)CCC(=O)N1CCN(C)CC1)OCC [Compound 32, Diethyl (3-(N-hydroxy-4-(4-methylpiperazin-1-yl)-4-oxobutanamido)propyl) phosphonate] | > 100000 | – | –
CCOP(=O)(CCCNc1ccccc1N)OCC [Compound 34, Diethyl (3-((2-aminophenyl)amino)propyl)phosphonate] | – | 3.7 | IC50 [1, 4]: 8200 ± 2700 nM; cytotoxicity in words [2]: cytotoxic
CCOP(=O)(CCCN(O)C(=O)CCC(=O)N(O)CCCP(=O)(OCC)OCC)OCC [Compound 18, Tetraethyl-((succinylbis(hydroxyazanediyl))bis (propane-3,1-diyl))bis(phosphonate)] | > 100000 | – | –
CCOP(=O)(CCCN(O)C(=O)CCC(=O)N1CCNCC1)OCC [Compound 33, 4-(4-((3-(Diethoxyphosphoryl)propyl)(hydroxy)amino)-4-oxobutanoyl)piperazin-1-ium 2,2,2-trifluoroacetate] | > 100000 | – | –
CCOP(=O)(CCCN(O)C(=O)CCC(=O)NNC(=O)OC(C)(C)C)OCC [Compound 26, Tert-butyl 2-(4-((3-(diethoxyphosphoryl)propyl)(hydroxy)amino)-4-oxobutanoyl) hydrazine-1-carboxylate] | 86000 ± 1400 | – | –
CCOP(=O)(CCCN(O)C(=O)CCC(=O)N1CCN(c2ccnc3cc(Cl)ccc23)CC1)OCC [Compound 19, Diethyl (3-(4-(4-(7-chloroquinolin-4-yl)piperazin-1-yl)-N-hydroxy-4-oxobutanamido)propyl) phosphonate] | 2700 ± 500 | 23.9 | fold more active in comparison to the diester compound 17 [1]: 25–40; times more active than FSM [1]: 3.5–5.5
CCOP(=O)(CCCN(O)C(C)=O)OCC [Compound 17] | – | – | IC50 [1, 4]: > 100000 nM
Diethyl(3-(4-(bis(4-(3-((3S,5aS,6R,8aS,9R,10R,12R)-3,6,9-trimethyldecahydro-12H-3,12-epoxy[1,2]dioxepino[4,3-i]isochromen-10-yl)propanamido)butyl)amino)-N-hydroxy-4-oxobutanamido)propyl)phosphonate [Compound 23] | – | 34 | IC50 [1, 4]: 650 ± 260 nM; times more active than FSM [1]: 23–41
CCN(CC)CCCC(C)Nc1ccnc2cc(Cl)ccc12 (stereo not drawn) [CQ, Chloroquine, reference compound] | 72 ± 7.4 | – | –
O=CN(O)CCCP(=O)(O)O [FSM, fosmidomycin, reference compound] | – | >6.6 | fold less active than FR900098 ([1]; P. falciparum FcB1): 2; IC50 ([1]; Plasmodium falciparum, CQ-resistant P. falciparum FcB1/Colombia strain, mean ± SD of four independent experiments, read-out: IC50): 15000 ± 1700 nM
CCOP(=O)(CCCN(O)C(=O)CCC(=O)N(Cc1ccccc1)Cc1ccccc1)OCC [Compound 28, Diethyl (3-(4-(dibenzylamino)-N-hydroxy-4-oxobutanamido)propyl)phosphonate] | 38700 ± 10000 | – | –
C[C@@H]1CC[C@H]2[C@@H](C)C(=O)O[C@@H]3O[C@@]4(C)CC[C@@H]1[C@]32OO4 [ART, artemisinin, reference compound] | – | – | IC50 ([1]; Plasmodium falciparum, CQ-resistant P. falciparum FcB1/Colombia strain, control drugs, unit (nM), read-out: IC50): 55 ± 13.6 nM
